This is an account of results in article PMC8951016, “Computational Design and Biological Evaluation of Analogs of Lupin Peptide P5 Endowed with Dual PCSK9/HMG-CoAR Inhibiting Activity” (Pharmaceutics, 2022).

The subject of series [1] is LDLR on HepG2 cell surface. Briefly: ICW, LDLR localized in cellular membranes of HepG2 (peptide alone). Format: cell-based, human. Particulars: 50 µM, vs control, average ± SD, four independent experiments in duplicate. The protocol:
For the experiments, a total of 3 × 10^4 HepG2 cells/well were seeded in 96-well plates and treated with 4.0 μg/mL PCSK9-WT and 4.0 μg/mL PCSK9 + peptides P5 and/or P5 analogs (50 µM) and vehicle (H2O) for 2 h at 37 °C under 5% CO2 atmosphere. Thus, cells underwent to ICW assay following conditions already optimized. See Supplementary Materials for detailed information. […]
cLex Co., Nagano, Japan). The peptides (P5, P5-Best, P-H6A, and P5-S7A) were synthe-sized by the company GeneScript (Piscataway, NJ, USA) at >95% purity. The antibody against HMG-CoAR was bought from Abcam (Cambridge, UK). […]
HMG-CoAR Aactivity Assay. […] Subsequently, the samples were mixed and the absorbance at 340 nm read by the microplate reader Synergy H1 (Winooski, VT, USA) at time 0 and 10 min. The HMG-CoAR-dependent oxidation of NADPH and the inhibition properties of peptides were measured by absorbance reduction, which is directly proportional to enzyme activ- […]
In Vitro PCSK9-LDLR Binding Assay. […] The reaction was stopped with 2.0 M sulfuric acid and the absorbance at 450nm was measured using the Synergy H1 fluorescent plate reader […]

Another series relates to LDLR. Set-up: method as in 3 sources, ref 48 = [48]; doi:10.1111/jfbc.12757; 48. Lammi C. Zanoni C. Arnoldi A. Aiello G. […] (P3), a peptide from lupin protein, absorbed by Caco-2 cells, modulates cholesterol metabolism in HepG2 cells via SREBP-1 activation J. Food B ||| ref 22 = [22]; doi:10.1016/j.jff.2017.02.009; 22. Zanoni C. Aiello G. Arnoldi A. Lammi C. Investigations on the hypocholesterolaemic activity of […] and LTFPGSAED, two peptides from lupin β-conglutin: Focus on LDLR and PCSK9 pathways J. Fu ||| ref 24 = [24]; PMID 33808034; doi:10.3390/nu13030863; 24. Lammi C. Aiello G. Bollati C. Li J. Bartolomei M. Ranaldi G. Ferruzza S. Fassi E.M.A. Grazioso G. Sambuy Y. Trans-Epithelial Transport, Metabolism, and Biological Activity Assessment of the Multi-. The settings on record: through activation of SREBP-2; cited from earlier work.

The test system of series [2] is human intestinal Caco-2 cells. Particulars: cited from earlier work.

LILPKHSDAD [Peptide P5]: the “increase of LDLR level in cellular membranes of HepG2” value in series [1] worked out at 153.6 ± 16.4%. In the series with LDLR, the “LDLR protein level in HepG2 (P5, earlier work, words)” value is “increases the LDLR protein level”. In series [2], the “metabolism during Caco-2 transport” value was “partially metabolized in a breakdown fragment (LPKHSDAD, P5-met)” and the “transport by differentiated Caco-2 cells” value is listed as “successfully transported”.
